Assay results reported in PubChem BioAssay (NCI).
Several values for one entry are separate records, joined by “and”; a condition that tells them apart may be missing. Equal entries are not always repeated.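 Values below derive from 48-hour exposures of cells grown in 96-well plates, with endpoints linearly interpolated between the two concentrations bracketing the appropriate inhibition level. GI50 = concentration required for 50% inhibition of growth. The concentration for full growth arrest is given as TGI.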

Tests used:
Assay in all cases: NCI-60 cell line screen, 48 h
786-0 renal = system: 786-0 renal
DU-145 prostate = system: DU-145 prostate
IGROV1 ovarian = system: IGROV1 ovarian
MOLT-4 leukemia = system: MOLT-4 leukemia
NCI-H522 lung = system: NCI-H522 lung
RPMI-8226 leukemia = system: RPMI-8226 leukemia
UACC-62 melanoma = system: UACC-62 melanoma
UO-31 renal = system: UO-31 renal

Row | SMILES | TGI (786-0 renal) | TGI (DU-145 prostate) | TGI (IGROV1 ovarian) | TGI (MOLT-4 leukemia) | TGI (NCI-H522 lung) | TGI (RPMI-8226 leukemia) | TGI (UACC-62 melanoma) | TGI (UO-31 renal) | GI50 (786-0 renal) | GI50 (DU-145 prostate) | GI50 (IGROV1 ovarian) | GI50 (MOLT-4 leukemia) | GI50 (NCI-H522 lung) | GI50 (RPMI-8226 leukemia) | GI50 (UACC-62 melanoma) | GI50 (UO-31 renal)
1 | O=C(c1c(F)c(F)c(F)c(F)c1F)c1c(F)c(F)c(F)c(F)c1F | 1.64 µM | 4.64 µM | 2.64 µM | 0.764 µM | 0.392 µM | 4.71 µM | 3.97 µM | 2.64 µM | – | – | – | – | – | – | – | –
2 | Cc1ccc(OP(=O)(Oc2ccc(C)cc2)N2C=Cc3ccccc3C2C#N)cc1 (centres undefined) | > 100 µM | > 100 µM | > 100 µM | > 100 µM | > 100 µM | > 100 µM | > 100 µM | > 100 µM | – | – | – | – | – | – | – | –
3 | O=C1c2ccccc2C(=O)N1CCc1ncc(-c2ccccc2)[nH]1 | > 100 µM | > 100 µM | > 100 µM | > 100 µM | > 100 µM | – | > 100 µM | > 100 µM | – | – | – | – | – | – | – | –
4 | COc1cc(-n2ccnc2-c2ccc3ccccc3c2)cc(OC)c1OC | 19 µM | 17.5 µM | > 51.2 µM | > 50.9 µM | 13.2 µM | 20.6 µM | 15.4 µM | 35 µM | 0.161 µM | 0.175 µM | 0.259 µM | 0.284 µM | < 0.0175 µM | 0.292 µM | 0.0657 µM | 0.28 µM
5 | C[C@@H]1C[C@H](N)C[C@H](c2ccncc2NC(=O)c2ccc(F)c(-c3c(F)cccc3F)n2)C1 | 25.6 µM and > 10 µM | 26.3 µM and > 10 µM | 21 µM and > 10 µM | 20.6 µM and > 10 µM | 28.6 µM and > 10 µM | 11.4 µM and > 10 µM | 28.2 µM and > 10 µM | 18.6 µM and > 10 µM | 12.2 µM and > 10 µM | 13.5 µM and > 10 µM | 5.05 µM and 8.68 µM | 4.91 µM and 5.14 µM | 13.2 µM and > 10 µM | 0.592 µM and 0.939 µM | 14.3 µM and > 10 µM | 3.65 µM and 1.28 µM
6 | O=C1c2c(c(=O)[nH]c3ccccc23)[C@H](c2ccccc2)[C@@H]2CCCN12 | > 100 µM | 27.5 µM | 15.6 µM | 39.2 µM | > 100 µM | 48.4 µM | 22.3 µM | 7.05 µM | 4.61 µM | 3.38 µM | 3.59 µM | 5.12 µM | 8.56 µM | 4.83 µM | 3.14 µM | 2.1 µM
7 | O=C(O)c1cccc(S(=O)(=O)NCCO)c1 | > 100 µM | > 100 µM | > 100 µM | > 100 µM | > 100 µM | > 100 µM | > 100 µM | > 100 µM | – | – | – | – | – | – | – | –
8 | CN1C(=O)CCC(N2C(=O)c3cccc(NCCOCCOCCNC(=O)c4cc5c(o4)C(=O)c4ccccc4C5=O)c3C2=O)C1=O (centres undefined) | 5.64 µM | 2.89 µM | 4.31 µM | 5.8 µM | 5.08 µM | 7.06 µM | 2.35 µM | 3.31 µM | 2.27 µM | 1.5 µM | 1.8 µM | 2.38 µM | 1.96 µM | 2.32 µM | 1.04 µM | 1.59 µM
9 | C(=N\Nc1ncc(-c2cc3cc4c(cc3o2)OCO4)s1)/c1ccco1 | 4.94 µM | 5.49 µM | 8.09 µM | 14.5 µM | 2.97 µM | 13.3 µM | 14.5 µM | 3.68 µM | 1.97 µM | 2.02 µM | 2.6 µM | 0.946 µM | 0.625 µM | 3.08 µM | 3.81 µM | 0.59 µM
10 | CC1=C([Te]c2ccccc2)C(=O)c2ccccc2C1=O | 3.96 µM | 1.58 µM | 1.82 µM | 1.3 µM | 4.24 µM | 1.31 µM | 3.8 µM | 1.12 µM | 2.01 µM | 0.424 µM | 0.5 µM | 0.287 µM | 0.909 µM | 0.275 µM | 1.43 µM | 0.246 µM
11 | CCOC(=O)c1[nH]c2cc(Cl)ccc2c1[C@@H](C(=O)NC(C)(C)C)N(CC)C(=O)CCCCC#Cc1cccc2c1CN(C1CCC(=O)NC1=O)C2=O (some centres undefined) | 8.63 µM | 46.8 µM | 11.1 µM | 0.0152 µM | 25.8 µM | 2.88 µM | 5.51 µM | 2.95 µM | 0.249 µM | 3.06 µM | < 0.0109 µM | < 0.01 µM | 1.8 µM | 0.185 µM | 1.56 µM | 0.0425 µM
12 | CC1=CCC2CC1C(C(=O)c1c[nH]c3ccccc13)=NC2(C)C (centres undefined) | > 100 µM | > 100 µM | > 100 µM | > 100 µM | > 100 µM | > 100 µM | > 100 µM | > 100 µM | – | – | – | – | – | – | – | –
13 | O=C1Nc2c(Cl)cc(Cl)cc2/C1=N/N=C/c1ccco1 | > 100 µM | – | > 100 µM | > 100 µM | – | – | 53.6 µM | 55.4 µM | – | – | – | – | – | – | – | –
14 | C=C(C)[C@@H]1CC[C@]2(CO)CC[C@]3(C)[C@H](CC[C@@H]4[C@@]5(C)CCCNC(C)(C)[C@@H]5CC[C@]43C)[C@@H]12 | 3.16 µM | 3.02 µM | 3.26 µM | 4.5 µM | – | 4.51 µM | 3.25 µM | 2.99 µM | 1.62 µM | 1.63 µM | 1.66 µM | 1.79 µM | – | 1.94 µM | 1.82 µM | 1.56 µM
15 | CN(C)c1ccc(/C=N/NC(N)=S)nc1 | 9.68 µM | 16.3 µM | – | 95.1 µM | > 100 µM | > 100 µM | > 100 µM | 7.46 µM | 3.33 µM | 2.45 µM | – | 2.92 µM | 1.2 µM | 3.21 µM | 3.39 µM | 2.34 µM
16 | CCN1CCN(CCNc2nccc(-c3c(-c4ccc(F)c(O)c4)nc4occn34)n2)S1(=O)=O | > 100 µM | > 100 µM | > 100 µM | > 100 µM | > 100 µM | – | 6.56 µM | > 100 µM | 9.44 µM | 3.75 µM | 4.06 µM | 2.56 µM | 2.93 µM | – | 1.5 µM | 2.66 µM
17 | Cc1ccc(OCC2CO2)c(Br)c1 (centres undefined) | 62 µM | > 100 µM | 37.1 µM | 70.4 µM | – | 74.9 µM | 37.7 µM | 39.1 µM | – | – | – | – | – | – | – | –
18 | Cc1cc(OCc2nnc3n2S(=O)(=O)c2ccccc2N3C)ccc1Cl | 32.7 µM | > 100 µM | > 100 µM | > 100 µM | 45.6 µM | – | 52.9 µM | > 100 µM | – | – | – | – | – | – | – | –
19 | C=CCC1(C(=O)OC)CCC/C(=N\O)C1 (centres undefined) | > 10 µM | > 10 µM | > 10 µM | > 10 µM | > 10 µM | > 10 µM | > 10 µM | – | – | – | – | – | – | – | – | –
